The values that follow come from patent publication US20100168112A1, “2-Substituted and 4-substituted aryl nitrone compounds” (RENOVIS, INC., priority 2004, published 2010).

What is called Cmax is the maximum level reached in the sampled fluid or tissue. Broadly, the Tmax is the time from dosing to the highest level. As a reminder, the bioavailability is the share of a dose that reaches the circulation, judged against a reference dose that is usually intravenous.

The nature of data set [1]: Pharmacokinetic evaluation following intravenous and oral administration in rats. It is filed as in vivo. The conditions noted are these: male, Sprague-Dawley; for Cmax / Tmax / bioavailability: 5 mg/kg; for Cmax: rat plasma; for Cmax / Tmax: oral gavage, 2 mg/mL at 2.5 mL/kg; for clearance / Vd / Tmax / bioavailability / half-life: plasma, rat; for clearance / Vd / half-life: 1 mg/kg; for clearance / Vd: intravenous administration, 1 mg/mL at 1.0 mL/kg; for clearance: read-out: CI (clearance) (converted); for Vd: read-out: Vd (volume of distribution); for bioavailability: po 2 mg/mL at 2.5 mL/kg vs iv 1 mg/mL at 1.0 mL/kg, dose-normalized, read-out: F (%) oral bioavailability; for half-life: intravenous, read-out: T1/2 elimination half life (converted). An outline of the steps: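 Male Sprague-Dawley rats, fasted, dosed iv (1 mg/mL formulation, 1.0 mL/kg, jugular or tail vein) or by oral gavage (2 mg/mL suspension, 2.5 mL/kg). Plasma sampled from 2 min to 480 min, some to 24 h, and quantified by LC-MS/MS (MRM). Parameters from noncompartmental analysis.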

Data set [2] can be described thus: Plasma protein binding (equilibrium dialysis), human plasma. Format: in vitro ADME. The following applies: 1 μg/mL in plasma, dialysis vs phosphate buffer pH 7.4 overnight at 37° C., read-out: Plasma Protein Binding % Bound Human (converted). On the procedure: Nitrone compounds of this invention were individually dissolved in DMSO to make a stock solution of 1 mg/mL. The compound was spiked into plasma to achieve a final concentration of 1 μg/mL. Spiked plasma and phosphate buffer (0.1M, pH 7.4), 200 μl each, were added to the opposite sides of the membrane in a 96-well equilibrium dialyzer. The dialyzer plate was then covered and equilibrated overnight at 37° C. on an orbital shaker. Aliquots were taken from the plasma and the buffer compartments and prepared by adding blank plasma to samples from the buffer compartments and drug-free phosphate buffer to samples from the plasma compartments to eliminate the matrix effects. The samples were extracted using protein precipitation procedure by adding CH3CN. The samples were analyzed using a LC/MS/MS method. The percentage of free and bound nitrone compound were calculated according to the following formula:
%Free=[Free Drug/Total Drug]*100=[(Peak Area)buffer/(Peak Area)serum]*100%Bound=100%Free
On the technique in general: In equilibrium dialysis free small molecules cross a membrane that holds back macromolecules.

Regarding `CC(C)(C)/[N+]([O-])=C/c1ccccc1S(C)(=O)=O` [Compound 66, N-tert-Butyl-C-(2-methanesulfonylphenyl)nitrone], in data set [1], the Cmax came to 4730 ng/mL, the clearance was 3 mL/min/kg, the Vd amounted to 0.63 L/kg and the time of peak concentration (Tmax) is 60 min. Moreover, in data set [1], the bioavailability turned out to be 70.3% and the half-life was 143 min. Further, the fraction unbound at 1 μg/mL in data set [2] is 0.726.

For `CC(C)(C)/[N+]([O-])=C/c1ccc(S(=O)(=O)N2CCOCC2)cc1` [Compound 23, N-(tert-Butyl)-C-[4-(morpholine-4-sulfonyl)phenyl]nitrone], in data set [1], the Cmax came to 1120 ng/mL, the clearance is 28 mL/min/kg, the Vd is 3.78 L/kg and the Tmax is 25.2 min. Moreover, in data set [1], the bioavailability is 65.3% and the half-life is 94.8 min. Further, in data set [2], the fraction unbound at 1 μg/mL was 0.8.

With `CCS(=O)(=O)c1ccc(/C=[N+](\[O-])C(C)(C)C)c(S(=O)(=O)CC)c1` [Compound 64, N-tert-Butyl-C-(2,4-bis-ethanesulfonylphenyl)nitrone], in data set [1], the highest level (Cmax) was 2490 ng/mL, the clearance was 13.8 mL/min/kg, the Vd turned out to be 0.67 L/kg and the Tmax is 39.6 min. Besides, in data set [1], the bioavailability turned out to be 91.3% and the half-life was 33 min. Besides, in data set [2], the fraction unbound at 1 μg/mL is 0.697.

With `CC(C)(C)/[N+]([O-])=C/c1ccc(S(C)(=O)=O)cc1S(C)(=O)=O` [Compound 63, N-tert-Butyl-C-(2,4-bis-methanesulfonylphenyl)nitrone], in data set [1], the Cmax came out at 4130 ng/mL, the clearance was 3.17 mL/min/kg, the Vd worked out at 0.45 L/kg and the Tmax amounted to 45 min. Also, in data set [1], the bioavailability stood at 95.9% and the half-life is 99.6 min. Also, the fraction unbound at 1 μg/mL in data set [2] is 0.867.

Take `CC(C)(C)/[N+]([O-])=C/c1ccc(S(N)(=O)=O)cc1` [Compound 20, N-(tert-Butyl)-C-[4-(sulfamoyl)phenyl]nitrone]: in data set [1], the concentration peaked (Cmax) at 796 ng/mL, the clearance is 12.8 mL/min/kg, the Vd is 4.08 L/kg and the Tmax was 22.2 min. Also, in data set [1], the bioavailability stood at 55.4% and the half-life is 220 min. For the same molecule, in data set [2], the fraction unbound at 1 μg/mL is 1.

Turning to `CC(C)(C)/[N+]([O-])=C/c1ccc(S(=O)(=O)Nc2cccnc2)cc1` [Compound 26, N-(tert-Butyl)-C-[4-(pyridin-3-ylsulfamoyl)phenyl]nitrone], in data set [1], the peak level (Cmax) was 27300 ng/mL, the clearance was 0.167 mL/min/kg, the Vd is 0.09 L/kg and the Tmax was determined as 25.2 min. Besides, in data set [1], the bioavailability stood at 43.4% and the half-life was 262 min. For the same molecule, the fraction unbound at 1 μg/mL in data set [2] is 0.238.

With `CC(C)(C)/[N+]([O-])=C/c1ccc(S(C)(=O)=O)cc1` [Compound 62, N-tert-Butyl-C-[4-(methanesulfonyl)phenyl]nitrone], in data set [1], the highest level (Cmax) was 4630 ng/mL, the clearance is 1 mL/min/kg, the Vd was 0.53 L/kg and the time to peak (Tmax) was 24.6 min. Also, in data set [1], the bioavailability came to 63.4% and the half-life is 349 min. The fraction unbound at 1 μg/mL in data set [2] is 0.826.
